Test results published in paper PMC2694132 (Cancer research, 2009).
Where a chain is given by its changes, count along the chain named.

How the values were obtained:
[1] = patients treated with SAHA; cited from earlier work
UGT2B15 = molecular target: T1, UGT2B15 (Homo sapiens, UniProt P54855); experiment: SAHA glucuronidation screen, UGT2B15-overexpressing cell homogenate; assay type: in vitro ADME; conditions: 400 μg UGT-overexpressing cell homogenate, 1-h incubation
T1 sequence (P54855 24-530): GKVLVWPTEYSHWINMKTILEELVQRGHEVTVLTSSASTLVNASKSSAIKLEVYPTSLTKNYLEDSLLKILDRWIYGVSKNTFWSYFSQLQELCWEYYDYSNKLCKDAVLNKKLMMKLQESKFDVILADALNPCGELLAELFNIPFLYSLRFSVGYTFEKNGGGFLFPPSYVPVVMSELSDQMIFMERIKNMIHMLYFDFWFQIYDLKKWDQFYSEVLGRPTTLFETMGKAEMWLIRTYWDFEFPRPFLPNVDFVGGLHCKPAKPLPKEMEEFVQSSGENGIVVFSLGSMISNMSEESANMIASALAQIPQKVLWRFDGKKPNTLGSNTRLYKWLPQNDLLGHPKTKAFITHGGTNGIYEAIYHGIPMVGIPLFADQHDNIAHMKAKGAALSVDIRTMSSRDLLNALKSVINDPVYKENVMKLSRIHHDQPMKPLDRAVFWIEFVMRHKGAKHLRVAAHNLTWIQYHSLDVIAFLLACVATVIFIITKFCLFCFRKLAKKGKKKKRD

UGT1A7 = molecular target: T2, UGT1A7 (Homo sapiens, UniProt Q9HAW7); experiment: SAHA glucuronidation, wild-type UGT1A7; assay type: in vitro ADME
T2 sequence (Q9HAW7 26-530): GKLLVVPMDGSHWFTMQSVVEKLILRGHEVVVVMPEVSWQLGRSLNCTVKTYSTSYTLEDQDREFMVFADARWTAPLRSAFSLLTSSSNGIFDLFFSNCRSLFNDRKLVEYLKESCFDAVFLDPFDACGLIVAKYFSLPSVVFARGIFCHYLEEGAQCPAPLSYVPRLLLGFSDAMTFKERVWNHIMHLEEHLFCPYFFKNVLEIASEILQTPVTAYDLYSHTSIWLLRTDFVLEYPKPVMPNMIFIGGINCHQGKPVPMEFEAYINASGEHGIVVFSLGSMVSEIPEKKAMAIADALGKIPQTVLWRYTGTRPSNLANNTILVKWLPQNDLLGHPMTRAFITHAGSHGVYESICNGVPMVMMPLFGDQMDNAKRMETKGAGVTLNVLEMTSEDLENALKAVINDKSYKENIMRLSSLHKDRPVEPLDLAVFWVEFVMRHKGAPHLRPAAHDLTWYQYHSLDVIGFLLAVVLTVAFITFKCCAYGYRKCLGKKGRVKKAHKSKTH

UGT1A1 = molecular target: T3, UGT1A1 (Homo sapiens, UniProt P22309); experiment: SAHA glucuronidation screen, UGT1A1-overexpressing cell homogenate; assay type: in vitro ADME
T3 sequence (P22309 26-533): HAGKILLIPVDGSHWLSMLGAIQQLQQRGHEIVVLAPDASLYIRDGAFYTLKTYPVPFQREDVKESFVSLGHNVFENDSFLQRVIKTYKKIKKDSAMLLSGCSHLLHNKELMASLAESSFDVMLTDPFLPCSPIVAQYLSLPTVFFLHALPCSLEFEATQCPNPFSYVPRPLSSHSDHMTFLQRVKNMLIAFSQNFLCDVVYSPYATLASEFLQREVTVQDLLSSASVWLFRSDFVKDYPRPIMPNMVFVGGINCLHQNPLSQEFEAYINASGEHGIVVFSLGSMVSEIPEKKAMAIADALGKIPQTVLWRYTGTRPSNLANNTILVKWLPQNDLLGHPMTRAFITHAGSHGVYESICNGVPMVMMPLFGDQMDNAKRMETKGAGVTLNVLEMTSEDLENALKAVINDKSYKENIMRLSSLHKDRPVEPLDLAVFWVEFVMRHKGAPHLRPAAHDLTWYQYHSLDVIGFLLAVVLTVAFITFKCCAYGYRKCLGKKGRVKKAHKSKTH

[2] = molecular target: T4, UGT1A7*2 [UGT1A7p.(Asn129Lys)+(Arg131Lys)] (Homo sapiens, UniProt Q9HAW7, N129K/R131K); experiment: SAHA glucuronidation, UGT1A7*2 variant cell homogenate; assay type: in vitro ADME
T4 sequence (Q9HAW7 26-530 N129K/R131K): T2 sequence (Q9HAW7 26-530) with N104K, R106K

[3] = molecular target: T5, UGT1A8*2 (UGT1A8p.Ala173Gly) (Homo sapiens, UniProt Q9HAW9, A173G); experiment: SAHA glucuronidation, UGT1A8*2 variant cell homogenate; assay type: in vitro ADME
T5 sequence (Q9HAW9 26-530 A173G): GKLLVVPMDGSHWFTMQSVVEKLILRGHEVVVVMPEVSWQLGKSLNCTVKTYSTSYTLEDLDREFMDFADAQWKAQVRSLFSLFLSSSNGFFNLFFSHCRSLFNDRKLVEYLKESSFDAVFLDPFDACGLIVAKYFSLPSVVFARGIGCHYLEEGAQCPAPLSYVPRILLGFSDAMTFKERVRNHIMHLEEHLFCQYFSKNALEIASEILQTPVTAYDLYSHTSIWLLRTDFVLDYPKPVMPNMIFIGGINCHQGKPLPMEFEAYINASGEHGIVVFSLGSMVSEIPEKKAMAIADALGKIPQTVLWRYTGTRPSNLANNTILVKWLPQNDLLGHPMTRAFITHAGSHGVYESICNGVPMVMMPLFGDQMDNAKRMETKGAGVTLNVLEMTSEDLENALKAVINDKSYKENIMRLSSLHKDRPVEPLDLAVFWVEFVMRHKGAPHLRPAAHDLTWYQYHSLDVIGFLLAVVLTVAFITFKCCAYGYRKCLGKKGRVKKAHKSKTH

SMILES: O=C(CCCCCCC(=O)Nc1ccccc1)NO [SAHA, Suberoylanilide hydroxamic acid]
- apparent terminal half-life [1]: ~ 1.8 hours
- glucuronidation activity against SAHA (screen) (UGT2B15): No detectable glucuronidation activity
- glucuronidation against SAHA (screen) (UGT1A7; 400 μg UGT-overexpressing cell homogenate, 1-h incubation): high levels of glucuronidation
- Km at 1 h (UGT1A7; human, pH 7.5): 2.7 ± 0.6 mM
- Km at 1 h (UGT1A1; human, UGT1A1-overexpressing cell homogenate, pH 7.5): > 8 mM
- glucuronidation against SAHA (UGT1A1; in vitro, UGT-overexpressing cell homogenate): detectable levels of glucuronidation
- difference in glucuronidation activity against SAHA versus wild-type UGT1A7 ([2]; UGT1A7 variants): No significant difference
- Km at 1 h ([2]; human, pH 7.5): 2.5 ± 0.3 mM
- decrease in glucuronidation activity against SAHA compared with wild-type UGT1A8 ([3]; UGT1A8p.Ala173Gly variant, P < 0.005): 3 fold
- Km at 1 h ([3]; human, UGT1A8*2 variant-overexpressing cell homogenate, pH 7.5): 3 ± 0.7 mM
